From the NIST ThermoML archive (doi:10.1021/je100765j)

Experiment: refractive index (Na D-line) (dimensionless); xn = mol fraction of the nth substance listed
Conditions: 101 kPa, Liquid, Standard Abbe refractometry

CCCCCl [1-chlorobutane] + CC(C)OC(C)C
refractive index
Conditions	283.15 K	288.15 K	293.15 K	298.15 K	303.15 K	308.15 K	313.15 K
x1 = 0.0466	1.37486	1.37213	1.36941	1.36656	1.36373	1.36088	1.35801
x1 = 0.0991	1.37637	1.37364	1.37092	1.36807	1.36525	1.3624	1.35953
x1 = 0.1918	1.37915	1.37643	1.37372	1.3709	1.36808	1.36524	1.3624
x1 = 0.32	1.38331	1.38059	1.37788	1.37509	1.37227	1.36944	1.36662
x1 = 0.4199	1.38643	1.38374	1.38104	1.37827	1.37544	1.37262	1.36983
x1 = 0.516	1.38968	1.38698	1.38428	1.38153	1.37872	1.37592	1.37315
x1 = 0.623	1.39338	1.39068	1.38799	1.38527	1.38246	1.37967	1.37693
x1 = 0.7154	1.39669	1.39399	1.3913	1.38859	1.3858	1.38301	1.38028
x1 = 0.8157	1.40037	1.39768	1.39499	1.39231	1.38954	1.38677	1.38407
x1 = 0.9098	1.40395	1.40125	1.39856	1.39594	1.39315	1.3904	1.38773
x1 = 0.9559	1.40572	1.40303	1.40034	1.3977	1.39493	1.39216	1.38952

CC(C)(C)Cl [2-chloro-2-methylpropane] + CC(C)OC(C)C
refractive index
Conditions	283.15 K	288.15 K	293.15 K	298.15 K	303.15 K	308.15 K	313.15 K
x1 = 0.049	1.37426	1.37152	1.36878	1.36591	1.36307	1.36021	1.35731
x1 = 0.0996	1.37498	1.37223	1.36948	1.36661	1.36376	1.36089	1.35799
x1 = 0.1991	1.37645	1.37368	1.37091	1.36803	1.36516	1.36228	1.35936
x1 = 0.3212	1.37834	1.37555	1.37275	1.36986	1.36697	1.36407	1.36114
x1 = 0.4189	1.37994	1.37712	1.37431	1.3714	1.3685	1.36559	1.36263
x1 = 0.5148	1.38157	1.37874	1.3759	1.37299	1.37006	1.36713	1.36416
x1 = 0.6213	1.38348	1.38063	1.37775	1.37483	1.37189	1.36894	1.36595
x1 = 0.7152	1.38524	1.38237	1.37947	1.37654	1.37357	1.37061	1.3676
x1 = 0.8138	1.38719	1.3843	1.38137	1.37843	1.37543	1.37245	1.36942
x1 = 0.9079	1.38915	1.38623	1.38327	1.38031	1.3773	1.3743	1.37125
x1 = 0.9552	1.39016	1.38723	1.38426	1.3813	1.37827	1.37526	1.3722

CCC(C)Cl (stereo not drawn) [2-chlorobutane] + CC(C)OC(C)C
refractive index
Conditions	283.15 K	288.15 K	293.15 K	298.15 K	303.15 K	308.15 K	313.15 K
x1 = 0.0519	1.37477	1.37203	1.36931	1.36644	1.36361	1.36077	1.35788
x1 = 0.0988	1.37587	1.37314	1.37041	1.36756	1.36473	1.36189	1.359
x1 = 0.2006	1.37839	1.37566	1.37294	1.37009	1.36727	1.36443	1.36155
x1 = 0.3211	1.38155	1.37883	1.3761	1.37326	1.37044	1.3676	1.36473
x1 = 0.4201	1.38427	1.38154	1.37882	1.37599	1.37317	1.37033	1.36746
x1 = 0.532	1.38745	1.38472	1.38199	1.37917	1.37636	1.37353	1.37067
x1 = 0.6244	1.39016	1.38743	1.3847	1.38189	1.37908	1.37626	1.3734
x1 = 0.726	1.39324	1.39051	1.38778	1.38498	1.38218	1.37936	1.37651
x1 = 0.8163	1.39608	1.39336	1.39063	1.38784	1.38505	1.38224	1.3794
x1 = 0.8817	1.39819	1.39548	1.39275	1.38997	1.38719	1.38438	1.38154
x1 = 0.9634	1.40097	1.39825	1.39552	1.39276	1.38997	1.38716	1.38434

CC(C)CCl [1-chloro-2-methylpropane] + CC(C)OC(C)C
refractive index
Conditions	283.15 K	288.15 K	293.15 K	298.15 K	303.15 K	308.15 K	313.15 K
x1 = 0.0549	1.37495	1.37221	1.36949	1.36663	1.36379	1.36095	1.35806
x1 = 0.091	1.3759	1.37316	1.37043	1.36757	1.36474	1.36188	1.359
x1 = 0.1977	1.37869	1.37595	1.37322	1.37038	1.36754	1.36469	1.36182
x1 = 0.2934	1.38128	1.37855	1.37581	1.37298	1.37015	1.3673	1.36444
x1 = 0.3911	1.38404	1.38131	1.37857	1.37575	1.37292	1.37008	1.36723
x1 = 0.5137	1.38762	1.38488	1.38213	1.37932	1.37649	1.37365	1.37081
x1 = 0.6034	1.39034	1.3876	1.38484	1.38205	1.37922	1.37638	1.37354
x1 = 0.6769	1.39263	1.38989	1.38713	1.38435	1.38152	1.37868	1.37585
x1 = 0.8059	1.3968	1.39405	1.39129	1.38852	1.38568	1.38285	1.38003
x1 = 0.9111	1.40038	1.39764	1.39487	1.39212	1.38928	1.38645	1.38364
x1 = 0.9646	1.40226	1.39951	1.39674	1.394	1.39116	1.38833	1.38553
